In US20090022824A1, “Pesticidal formulations” (Akhil Technologies Pty Ltd, priority 2005, published 2009):

System: root-knot nematode (Meloidogyne javanica)
Assay: Efficacy to control root-knot nematode, pot trial with tomato plants
Type: in vivo
Settings: tomato cv. Tiny Tim, relative to untreated control
Description: The efficacy of pesticidal formulations in the control of root-knot nematode (Meloidogyne javanica) as a pre-plant soil pesticidal formulation was investigated.
The root-knot nematode colonies were prepared with 1 kg of river sand placed in 100 mm diameter pots. The sand was inoculated with 10,000 eggs of root-knot nematode (M. javanica). The eggs were harvested from the roots of infected tomato plants (Lycopersicon esculentum cv. Tiny Tim) by washing in a 1% bleach solution for 3 minutes, collecting the […] on a 25 μm sieve and rinsing in running tap water for 2 minutes.
The appropriate treatment was applied to each pot in 5 mL of water using five 1 mL injections spaced evenly around the pot. Each dilution of the pesticidal formulation was applied using a pipette so that the tip of the pipette was 20 mm below the soil surface. The pots were allowed to stand for 7 days before planting a three week old tomato plant (c.v. Tiny Tim) in each pot.
Six weeks after planting the tomatoes were harvested. The tops of the plants were removed and dried for 4 days at 70° C. before being weighed. […] The juvenile nematodes were collected on a 25 μm sieve, backwashed and counted using a compound microscope at 40× magnification. […]

`CNC(=S)[S-].[Na+]` [metham sodium] was tested, and the “juvenile root-knot nematodes extracted from the roots” value (six weeks after planting, FIG. 2) was “significantly fewer” and the “galls on the root system of tomato plants (gall rating)” value (soil inoculated with 10,000 eggs, harvested six weeks after planting, FIG. 1) was “significantly fewer”.
